From US20110082130A1 (LIGAND PHARMACEUTICALS, INC., priority 2006, published 2011)

The molecules below were run against T1, chimeric human H3 receptor (Homo sapiens, UniProt Q9Y5N1) (assay: Chimeric human H3 receptor GTP binding assay (agonist-stimulated GTP-gamma35S binding, Example 7)). Settings: Table II "Ki", symbol *; assay of Example 7.
T1 construct: made in house; host or cells: Sf9 insect cells (baculovirus); P2 membrane preparation
Assay type: biochemical
Summary of the method: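 Sf9 membranes co-expressing chimeric human H3 receptor and heterotrimeric G-protein, 35 μg/tube, in pH 7.4 Tris buffer with 10 μM GDP. Test compounds (10^−10–10^−6 M) competed against 1 μM histamine, […] GTP-gamma35S, 60 min at room temperature. Filter-bound radioactivity counted; IC50 converted to Ki by Cheng-Prusoff. Agonism/inverse agonism tested without histamine (EC50).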

T1 sequence (Q9Y5N1 with tags, fused parts or gaps): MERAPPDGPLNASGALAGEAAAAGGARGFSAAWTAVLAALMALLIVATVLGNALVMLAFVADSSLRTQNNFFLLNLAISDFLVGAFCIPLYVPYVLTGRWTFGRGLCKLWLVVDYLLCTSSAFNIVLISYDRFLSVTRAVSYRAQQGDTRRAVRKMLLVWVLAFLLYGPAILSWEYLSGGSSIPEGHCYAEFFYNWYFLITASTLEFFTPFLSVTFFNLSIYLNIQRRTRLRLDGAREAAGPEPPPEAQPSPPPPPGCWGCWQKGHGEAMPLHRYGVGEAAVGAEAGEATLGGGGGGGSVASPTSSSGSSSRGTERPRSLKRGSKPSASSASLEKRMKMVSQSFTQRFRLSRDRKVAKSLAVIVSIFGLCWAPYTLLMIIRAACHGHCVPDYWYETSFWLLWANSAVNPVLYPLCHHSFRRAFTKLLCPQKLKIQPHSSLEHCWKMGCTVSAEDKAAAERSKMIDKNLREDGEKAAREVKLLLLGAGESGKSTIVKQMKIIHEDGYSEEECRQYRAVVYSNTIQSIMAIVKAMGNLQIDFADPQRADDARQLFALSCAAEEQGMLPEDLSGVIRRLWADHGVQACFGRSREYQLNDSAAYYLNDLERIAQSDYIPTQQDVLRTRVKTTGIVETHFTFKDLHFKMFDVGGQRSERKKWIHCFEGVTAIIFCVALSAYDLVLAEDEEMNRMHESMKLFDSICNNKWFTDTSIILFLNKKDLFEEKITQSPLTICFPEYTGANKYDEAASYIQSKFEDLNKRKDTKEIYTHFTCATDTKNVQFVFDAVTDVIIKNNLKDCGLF

Ki, < 1000 nM:
COc1ccc(-c2ccc3c(c2)CCN(CC(=O)N2CCN(C4CCCC4)CC2)C3)cc1C [Compound 541, 2-[2-(4-cyclopentylpiperazin-1-yl)-2-oxoethyl]-6-(4-methoxy-3-methylphenyl)-1,2,3,4-tetrahydroisoquinoline]
CCCOc1ccc(-c2ccc3c(c2)CCN(CC(=O)N2CCN(C4CCC4)CC2)C3)cc1 [Compound 544, 2-[2-(4-cyclobutylpiperazin-1-yl)-2-oxoethyl]-6-(4-propoxyphenyl)-1,2,3,4-tetrahydroisoquinoline]
CCCOc1ccc(-c2ccc3c(c2)CCN(CC(=O)N2CCN(C4CCCC4)CC2)C3)cc1 [Compound 545, 2-[2-(4-cyclopentylpiperazin-1-yl)-2-oxoethyl]-6-(4-propoxyphenyl)-1,2,3,4-tetrahydroisoquinoline]
C[C@H]1CN(C(=O)CN2CCc3cc(-c4cncnc4)ccc3C2)CCN1C1CCCC1 [Compound 610, 2-{2-[(3S)-4-cyclopentyl-3-methylpiperazin-1-yl]-2-oxoethyl}-6-pyrimidin-5-yl-1,2,3,4-tetrahydroisoquinoline]
C[C@@H]1CN(C(=O)CN2CCc3cc(-c4cncnc4)ccc3C2)CCN1C1CCCC1 [Compound 611, 2-{2-[(3R)-4-cyclopentyl-3-methylpiperazin-1-yl]-2-oxoethyl}-6-pyrimidin-5-yl-1,2,3,4-tetrahydroisoquinoline]
CC1CCCC1N1CCN(C(=O)CN2CCc3cc(-c4cncnc4)ccc3C2)CC1 (stereo not shown) [Compound 613, 2-{2-[4-(2-methylcyclopentyl)piperazin-1-yl]-2-oxoethyl}-6-pyrimidin-5-yl-1,2,3,4-tetrahydroisoquinoline]
CC1CCCC1N1CCN(C(=O)CN2CCc3cc(-c4cncnc4)ccc3C2)C[C@@H]1C (stereo partly drawn) [Compound 614, 2-{2-[(3S)-3-methyl-4-(2-methylcyclopentyl)piperazin-1-yl]-2-oxoethyl}-6-pyrimidin-5-yl-1,2,3,4-tetrahydroisoquinoline]
C[C@H]1CN(C(=O)CN2CCc3cc(-c4cncnc4)ccc3C2)CCN1C1CCCCC1 [Compound 616, 2-{2-[(3S)-4-cyclohexyl-3-methylpiperazin-1-yl]-2-oxoethyl}-6-pyrimidin-5-yl-1,2,3,4-tetrahydroisoquinoline]
C[C@@H]1CN(C(=O)CN2CCc3cc(-c4cncnc4)ccc3C2)CCN1C1CCCCC1 [Compound 617, 2-{2-[(3R)-4-cyclohexyl-3-methylpiperazin-1-yl]-2-oxoethyl}-6-pyrimidin-5-yl-1,2,3,4-tetrahydroisoquinoline]
CC1CCCCC1N1CCN(C(=O)CN2CCc3cc(-c4cncnc4)ccc3C2)CC1 (stereo not shown) [Compound 619, 2-{2-[4-(2-methylcyclohexyl)piperazin-1-yl]-2-oxoethyl}-6-pyrimidin-5-yl-1,2,3,4-tetrahydroisoquinoline]
C[C@H]1CN(C(=O)CN2CCc3cc(-c4cncnc4)ccc3C2)CCN1C1C[C@H]2CC[C@@H]1C2 (stereo partly drawn) [Compound 624, 2-(2-{(3S)-4-[(1R,4S)-bicyclo[2.2.1]hept-2-yl]-3-methylpiperazin-1-yl}-2-oxoethyl)-6-pyrimidin-5-yl-1,2,3,4-tetrahydroisoquinoline]
CCN(CC)c1ccc(-c2ccc3c(c2)CCN(CC(=O)N2CCN(C4CCC4)CC2)C3)cc1 [Compound 625, 4-{2-[2-(4-cyclobutylpiperazin-1-yl)-2-oxoethyl]-1,2,3,4-tetrahydroisoquinolin-6-yl}-N,N-diethylaniline]
N#Cc1ccccc1-c1ccc2c(c1)CCN(CC(=O)N1CCN(C3CCC3)CC1)C2 [Compound 627, 2-{2-[2-(4-cyclobutylpiperazin-1-yl)-2-oxoethyl]-1,2,3,4-tetrahydroisoquinolin-6-yl}benzonitrile]
Cc1cccc(-c2ccc3c(c2)CCN(CC(=O)N2CCN(C4CCC4)CC2)C3)n1 [Compound 628, 2-[2-(4-cyclobutylpiperazin-1-yl)-2-oxoethyl]-6-(6-methylpyridin-2-yl)-1,2,3,4-tetrahydroisoquinoline]
Cc1ccc(-c2ccc3c(c2)CCN(CC(=O)N2CCN(C4CCC4)CC2)C3)nc1 [Compound 629, 2-[2-(4-cyclobutylpiperazin-1-yl)-2-oxoethyl]-6-(5-methylpyridin-2-yl)-1,2,3,4-tetrahydroisoquinoline]
Cc1ccnc(-c2ccc3c(c2)CCN(CC(=O)N2CCN(C4CCC4)CC2)C3)c1 [Compound 630, 2-[2-(4-cyclobutylpiperazin-1-yl)-2-oxoethyl]-6-(4-methylpyridin-2-yl)-1,2,3,4-tetrahydroisoquinoline]
O=C(CN1CCc2cc(-c3ccc(Cl)cn3)ccc2C1)N1CCN(C2CCC2)CC1 [Compound 631, 6-(5-chloropyridin-2-yl)-2-[2-(4-cyclobutylpiperazin-1-yl)-2-oxoethyl]-1,2,3,4-tetrahydroisoquinoline]
O=C(CN1CCc2cc(-c3ccc(C(F)(F)F)cn3)ccc2C1)N1CCN(C2CCC2)CC1 [Compound 632, 2-[2-(4-cyclobutylpiperazin-1-yl)-2-oxoethyl]-6-[5-(trifluoromethyl)pyridin-2-yl]-1,2,3,4-tetrahydroisoquinoline]
COc1cccc(-c2ccc3c(c2)CCN(CC(=O)N2CCN(C4CCC4)CC2)C3)n1 [Compound 633, 2-[2-(4-cyclobutylpiperazin-1-yl)-2-oxoethyl]-6-(6-methoxypyridin-2-yl)-1,2,3,4-tetrahydroisoquinoline]
O=C(CN1CCc2cc(-c3ccc4ccccc4n3)ccc2C1)N1CCN(C2CCC2)CC1 [Compound 634, 2-{2-[2-(4-cyclobutylpiperazin-1-yl)-2-oxoethyl]-1,2,3,4-tetrahydroisoquinolin-6-yl}quinoline]
COc1cc(-c2ccc3c(c2)CCN(CC(=O)N2CCN(C4CCC4)CC2)C3)nc(OC)n1 [Compound 635, 2-[2-(4-cyclobutylpiperazin-1-yl)-2-oxoethyl]-6-(2,6-dimethoxypyrimidin-4-yl)-1,2,3,4-tetrahydroisoquinoline]
O=C(CN1CCc2cc(-c3nccc(C(F)(F)F)n3)ccc2C1)N1CCN(C2CCC2)CC1 [Compound 636, 2-[2-(4-cyclobutylpiperazin-1-yl)-2-oxoethyl]-6-[4-(trifluoromethyl)pyrimidin-2-yl]-1,2,3,4-tetrahydroisoquinoline]
O=C(CN1CCc2cc(-c3nccc4ccccc34)ccc2C1)N1CCN(C2CCC2)CC1 [Compound 637, 2′-[2-(4-cyclobutylpiperazin-1-yl)-2-oxoethyl]-1′,2′,3′,4′-tetrahydro-1,6′-biisoquinoline]
O=C(CN1CCc2cc(-c3cnc4ccccc4c3)ccc2C1)N1CCN(C2CCC2)CC1 [Compound 638, 3-{2-[2-(4-cyclobutylpiperazin-1-yl)-2-oxoethyl]-1,2,3,4-tetrahydroisoquinolin-6-yl}quinoline]
O=C(CN1CCc2cc(-c3cccc4[nH]ccc34)ccc2C1)N1CCN(C2CCC2)CC1 [Compound 639, 2-[2-(4-cyclobutylpiperazin-1-yl)-2-oxoethyl]-6-(1H-indol-4-yl)-1,2,3,4-tetrahydroisoquinoline]
